Experimental data as given in patent US20140024527A1, “HERBICIDAL PYRAZINONES” (E I DU DE NEMOURS AND COMPANY, priority 2011, published 2014).

How the values were obtained:
Type in all cases: in vivo
[1] = system: barnyardgrass (Echinochloa crus-galli); test: Test A postemergence; conditions: 0 to 100 scale, 0 no effect, 100 complete control, approx. 10 days
Summary of the method: (§1)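 Scores reflect visual plant response on a scale from 0 (no effect) to 100 (complete control) after approximately 10 greenhouse days. Pre- and postemergence sprays of solvent/surfactant-formulated chemical were applied at the same time, the latter at the one- to two-leaf stage.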

[2] = system: corn (Zea mays); test: Test A postemergence; conditions: 0 to 100 scale, 0 no effect, 100 complete control, approx. 10 days
Summary of the method: as §1

[3] = system: giant foxtail (Setaria faberii); test: Test A postemergence; conditions: 0 to 100 scale, 0 no effect, 100 complete control, approx. 10 days
Summary of the method: as §1

[4] = system: large crabgrass (Digitaria sanguinalis); test: Test A postemergence; conditions: 0 to 100 scale, 0 no effect, 100 complete control, approx. 10 days
Summary of the method: as §1

[5] = system: morningglory (Ipomoea spp.); test: Test A postemergence; conditions: 0 to 100 scale, 0 no effect, 100 complete control, approx. 10 days
Summary of the method: as §1

[6] = system: pigweed (Amaranthus retroflexus); test: Test A postemergence; conditions: 0 to 100 scale, 0 no effect, 100 complete control, approx. 10 days
Summary of the method: as §1

[7] = system: velvetleaf (Abutilon theophrasti); test: Test A postemergence; conditions: 0 to 100 scale, 0 no effect, 100 complete control, approx. 10 days
Summary of the method: as §1

[8] = system: wheat (Triticum aestivum); test: Test A postemergence; conditions: 0 to 100 scale, 0 no effect, 100 complete control, approx. 10 days
Summary of the method: as §1

[9] = system: barnyardgrass (Echinochloa crus-galli); test: Test A preemergence; conditions: 0 to 100 scale, 0 no effect, 100 complete control, approx. 10 days
Summary of the method: as §1

[10] = system: corn (Zea mays); test: Test A preemergence; conditions: 0 to 100 scale, 0 no effect, 100 complete control, approx. 10 days
Summary of the method: as §1

[11] = system: giant foxtail (Setaria faberii); test: Test A preemergence; conditions: 0 to 100 scale, 0 no effect, 100 complete control, approx. 10 days
Summary of the method: as §1

[12] = system: large crabgrass (Digitaria sanguinalis); test: Test A preemergence; conditions: 0 to 100 scale, 0 no effect, 100 complete control, approx. 10 days
Summary of the method: as §1

[13] = system: morningglory (Ipomoea spp.); test: Test A preemergence; conditions: 0 to 100 scale, 0 no effect, 100 complete control, approx. 10 days
Summary of the method: as §1

[14] = system: pigweed (Amaranthus retroflexus); test: Test A preemergence; conditions: 0 to 100 scale, 0 no effect, 100 complete control, approx. 10 days
Summary of the method: as §1

[15] = system: velvetleaf (Abutilon theophrasti); test: Test A preemergence; conditions: 0 to 100 scale, 0 no effect, 100 complete control, approx. 10 days
Summary of the method: as §1

[16] = system: wheat (Triticum aestivum); test: Test A preemergence; conditions: 0 to 100 scale, 0 no effect, 100 complete control, approx. 10 days
Summary of the method: as §1

[17] = system: barnyardgrass (Echinochloa crus-galli); test: Test B flooded paddy test; conditions: Flood
Summary of the method: (§2)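 Paddy-water application to 2-leaf plants in pots held under 3 cm of flooding; response is a 0–100 visual control rating against controls after 13 to 15 days, and a dash marks a missing result.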

[18] = system: ducksalad (Heteranthera limosa); test: Test B flooded paddy test; conditions: Flood, scale 0 to 100
Summary of the method: as §2

[19] = system: rice (Oryza sativa); test: Test B flooded paddy test; conditions: Flood, scale 0 to 100
Summary of the method: as §2

[20] = system: umbrella sedge (Cyperus difformis); test: Test B flooded paddy test; conditions: Flood, scale 0 to 100
Summary of the method: as §2

**Q.** `COCCCn1c(-c2cc(F)cc(F)c2)c(Cl)nc(C(=O)C2=C(O)CCCC2=O)c1=O` [Compound 8] was tested. Which “Plant response rating, Barnyardgrass” value ([1]; 31 g ai/ha) did it give?
**A.** Its value is 0.

**Q.** And the “Plant response rating, Barnyardgrass” value ([1]; 125 g ai/ha)?
**A.** Its value is 10.

**Q.** What about the “Plant response rating, Corn” value ([2]; 31 g ai/ha) of the same molecule?
**A.** Its value is 0.

**Q.** What about the “Plant response rating, Corn” value ([2]; 125 g ai/ha) of the same molecule?
**A.** Its value is 0.

**Q.** What about the “Plant response rating, Foxtail, Giant” value ([3]; 31 g ai/ha) of the same molecule?
**A.** Its value is 0.

**Q.** What about the “Plant response rating, Foxtail, Giant” value ([3]; 125 g ai/ha) of the same molecule?
**A.** The value was 10.

**Q.** What about the “Plant response rating, Crabgrass, Large” value ([4]; 31 g ai/ha) of the same molecule?
**A.** Its value is 0.

**Q.** What about the “Plant response rating, Crabgrass, Large” value ([4]; 125 g ai/ha) of the same molecule?
**A.** Its value is 30.

**Q.** And the “Plant response rating, Morningglory” value ([5]; 31 g ai/ha)?
**A.** Its value is 0.

**Q.** And the “Plant response rating, Morningglory” value ([5]; 125 g ai/ha)?
**A.** Its value is 50.

**Q.** And the “Plant response rating, Pigweed” value ([6]; 31 g ai/ha)?
**A.** The value was 20.

**Q.** And the “Plant response rating, Pigweed” value ([6]; 125 g ai/ha)?
**A.** The value was 40.

**Q.** What about the “Plant response rating, Velvetleaf” value ([7]; 31 g ai/ha) of the same molecule?
**A.** The value was 10.

**Q.** And the “Plant response rating, Velvetleaf” value ([7]; 125 g ai/ha)?
**A.** The value was 50.

**Q.** What about the “Plant response rating, Wheat” value ([8]; 31 g ai/ha) of the same molecule?
**A.** Its value is 0.

**Q.** What about the “Plant response rating, Wheat” value ([8]; 125 g ai/ha) of the same molecule?
**A.** The value was 0.

**Q.** And the “Plant response rating, Barnyardgrass” value ([9]; 31 g ai/ha)?
**A.** The value was 0.

**Q.** And the “Plant response rating, Barnyardgrass” value ([9]; 125 g ai/ha)?
**A.** The value was 10.

**Q.** And the “Plant response rating, Corn” value ([10]; 31 g ai/ha)?
**A.** Its value is 0.

**Q.** And the “Plant response rating, Corn” value ([10]; 125 g ai/ha)?
**A.** Its value is 0.

**Q.** What about the “Plant response rating, Foxtail, Giant” value ([11]; 31 g ai/ha) of the same molecule?
**A.** The value was 0.

**Q.** And the “Plant response rating, Foxtail, Giant” value ([11]; 125 g ai/ha)?
**A.** Its value is 0.

**Q.** What about the “Plant response rating, Crabgrass, Large” value ([12]; 31 g ai/ha) of the same molecule?
**A.** Its value is 20.

**Q.** And the “Plant response rating, Crabgrass, Large” value ([12]; 125 g ai/ha)?
**A.** Its value is 40.

**Q.** What about the “Plant response rating, Morningglory” value ([13]; 31 g ai/ha) of the same molecule?
**A.** The value was 0.

**Q.** And the “Plant response rating, Morningglory” value ([13]; 125 g ai/ha)?
**A.** Its value is 10.

**Q.** And the “Plant response rating, Pigweed” value ([14]; 31 g ai/ha)?
**A.** The value was 0.

**Q.** What about the “Plant response rating, Pigweed” value ([14]; 125 g ai/ha) of the same molecule?
**A.** Its value is 10.

**Q.** And the “Plant response rating, Velvetleaf” value ([15]; 31 g ai/ha)?
**A.** Its value is 0.

**Q.** And the “Plant response rating, Velvetleaf” value ([15]; 125 g ai/ha)?
**A.** Its value is 0.

**Q.** What about the “Plant response rating, Wheat” value ([16]; 31 g ai/ha) of the same molecule?
**A.** The value was 0.

**Q.** What about the “Plant response rating, Wheat” value ([16]; 125 g ai/ha) of the same molecule?
**A.** Its value is 0.

**Q.** And the “Plant response rating, Barnyardgrass” value ([17]; 31 g ai/ha, scale 0 to 100)?
**A.** The value was 0.

**Q.** And the “Plant response rating, Barnyardgrass” value ([17]; 62 g ai/ha, scale 0 to 100)?
**A.** Its value is 0.

**Q.** And the “Plant response rating, Barnyardgrass” value ([17]; 125 g ai/ha, scale 0 to 100)?
**A.** The value was 0.

**Q.** And the “Plant response rating, Barnyardgrass” value ([17]; 250 g ai/ha, scale 0 to 100 (0 no effect, 100 complete control))?
**A.** The value was 40.

**Q.** What about the “Plant response rating, Ducksalad” value ([18]; 31 g ai/ha) of the same molecule?
**A.** Its value is 0.

**Q.** And the “Plant response rating, Ducksalad” value ([18]; 62 g ai/ha)?
**A.** Its value is 0.

**Q.** And the “Plant response rating, Ducksalad” value ([18]; 125 g ai/ha)?
**A.** The value was 30.

**Q.** And the “Plant response rating, Ducksalad” value ([18]; 250 g ai/ha)?
**A.** The value was 80.

**Q.** And the “Plant response rating, Rice” value ([19]; 31 g ai/ha)?
**A.** Its value is 0.

**Q.** And the “Plant response rating, Rice” value ([19]; 62 g ai/ha)?
**A.** Its value is 0.

**Q.** What about the “Plant response rating, Rice” value ([19]; 125 g ai/ha) of the same molecule?
**A.** Its value is 0.

**Q.** What about the “Plant response rating, Rice” value ([19]; 250 g ai/ha) of the same molecule?
**A.** The value was 25.

**Q.** What about the “Plant response rating, Sedge, Umbrella” value ([20]; 31 g ai/ha) of the same molecule?
**A.** The value was 0.

**Q.** What about the “Plant response rating, Sedge, Umbrella” value ([20]; 62 g ai/ha) of the same molecule?
**A.** Its value is 40.

**Q.** And the “Plant response rating, Sedge, Umbrella” value ([20]; 125 g ai/ha)?
**A.** Its value is 40.

**Q.** And the “Plant response rating, Sedge, Umbrella” value ([20]; 250 g ai/ha)?
**A.** The value was 75.
